Experimental data as given in patent US4089947A, “Antibiotic compositions containing validamycin compounds” (priority 1976, dated 1978).

How the values were obtained:
Pellicularia sasakii [1] = assay: Abnormal branching of hyphal tips of Pellicularia sasakii (agar dilution bioassay); type: cell-based; conditions: for highest dilution factor that causes an abnormal branching at the hyphal tips of Pellicularia sasakii: 1 mg./ml. aqueous solution as stock solution; for dilution unit (maximum dilution which produces abnormal branching): aqueous solution containing 1000 γ/ml., 27° C for 40 hours
Method: Therefore, the bioassay of the antibiotics should be conducted in the following manner.
Pellicularia sasakii is used as the test organism employing plain agar as the assay medium. The test organism is cultivated on a potato (sucrose) agar slant for 2 to 5 days, and the resulting culture is used to inoculate at the center of a 9-cm Petri dish plate of modified Pfeffer's medium, which is then incubated at 27° C for 2 days. By the end of this period, the mycelium will have spread over the entire surface of the plate. The growth on the circumference about 3 to 3.5 cm in radius from the center is cut out with a cork borer and the agar disc thus obtained is used as the inoculum.
A serial dilution series of agar plants containing varying concentrations of the antibiotics is prepared in the same manner as a conventional agar dilution method.
A glass disc of 8 mm in diameter and about 0.2 mm thick, is placed in the center of each of the aforementioned dilution series of agar plates, and the agar disc inoculum is then placed on the glass disc. After incubation at 27° C for 40 hours, the result is evaluated. […] The term dilution unit means the value of maximum dilution which produces such abnormal branching.
Modified Pfeffer's medium, which is employed in this assay, has the following composition.
Before using the medium, the following vitamins are added in the specified amounts. (Weight per ml. of medium)
When a 1 mg./ml. aqueous solution of each of validamycins C, D, E and F and validoxylamines A and B is used as a stock solution, the highest dilution factor that causes an abnormal branching at the hyphal tips of Pellicularia sasakii is as follows.

bacteria and fungi = assay: Antimicrobial potency / growth inhibition in vitro; type: cell-based
[2] = pKa' (neutralization, in aqueous solution); type: physicochemical
Excerpt: 3. The elementary analysis, the molecular formulas as calculated therefrom, pKa' values, neutralization equivalents (molecular weight) and optical rotation values are given in Table 2.

Solubilities = type: physicochemical; conditions: methanol
Mice = assay: Acute toxicity in mice, intravenous injection; type: in vivo
Method: (§1) The toxicity of the antibiotics can be confirmed, for instance, by administering each of the validamycins C, D, E and F, and validoxylamines A and B, intravenously to mice and measuring the LD50 value, or by measuring the median lethal dose (48 hours) for Oryzias latipes.

Oryzias latipes = assay: Acute toxicity for Oryzias latipes (median lethal dose, 48 hours); type: in vivo; conditions: leaving in water solution
Method: as §1

Pellicularia sasakii [3] = assay: Rice sheath blight control test, preventive (prophylactic); type: in vivo; conditions: 10 days after application, untreated 34.4cm
Method: (§2) Rice sheath blight control test
(§3) Rice Plants (variety: Kinmaze) are planted in earthen pots 9 cm in diameter, 3 stocks per pot. Seedlings 80 days after potting are tested and 6 pots each of them are grouped.
(§4) Pathogenic fungi Pellicularia sasakii is cultivated on a plate of potato infusion-sugar-agar at 30°C for 48 hours, and its agar disc 10mm in diameter is cut out from a peripheral colony. The disc is inserted into the inside space of the leaf sheath near the soil surface, a disc per stem. The pots are kept in a PVC shelter at the temperature of 32°-25° C and the relative humidity of 100-70%. Inoculation is carried out immediately after the applied drug has been air-dried in the prophylactic test, and 3 days before application in the remedial test.
(§5) 10 days after application of the drug, the length of each stem from ground level to the upper edge of the lesion is directly measured.

Pellicularia sasakii [4] = assay: Rice sheath blight control test, remedial; type: in vivo; conditions: inoculation 3 days before application, untreated 34.4cm
Method: as §2, §3, §4, §5

Rhyzoctonia solani = assay: Cucumber damping-off control test; type: in vivo; conditions: 14 days after sowing
Method: Cucumber damping-off control test
Rhyzoctonia solani is cultured on barley medium at 28° C for 5 days. A field soil sample is packed into clay pots 9 cm in diameter, which are then sterilized with steam. The chaff inoculum is evenly worked into the cover soil of each pot to the depth of about 3 cm, at the rate of 2g./pot. The pots are kept in an incubation chamber at 28° C for 4 days and, then, transferred to a greenhouse.
As per Experiment 1, the drug is sprayed onto the soil surface at the rate of 30 ml./6 pots/group.
Healthy seeds of cucumber (variety: Yonyo) are sown by burial in the pots immediately after treatment, at the rate of 10 seeds/pot. The pots are then placed in a greenhouse at 32°-28° C.
14 days after sowing, the results are evaluated against the following coefficients of lesion and the degrees of damage are calculated.
Coefficients of lesion (I)
0.5 : Root hairs alone are slightly affected.
1 : Aerial portions near soil surface and roots affected.
2 : Early stage of damping-off.
3 : Affected at germination; growth inhibited.
Degree of damage (%) =(Σ(nI))/3 × N × 100 wherein n means the number of samples corresponding to each coefficient of lesion and N means the total number of plants.

Cladosporium fulvum = assay: Tomato leaf mold control test; type: in vivo; conditions: 50 ppm; 14 days after inoculation; inoculated 3 days before application
Method: Tomato leaf mold control test
Tomato plants (variety: ponterosa) are planted in 12 cm in diameter pots, one plant per pot. The seedlings 50 days after potting are used, 6 pots/group.
Applied at the rate of 100 ml./6 pots/group as per Experiment 1.
Pathogenic fungi Cladosporium fulvum is cultured on a potato infusion-sucrose plate at 20° C for 14 days, and a suspension of conidia (5×10^5 /ml.) is prepared from the culture.
The plants are spray-inoculated with the suspension 3 days before application of the drug, at the rate of 5 ml. per pot. The pots are kept in an inoculation chamber at 25° C for 24 hours, and, then they are transferred to a greenhouse.
14 days after inoculation, the specific ratio of the average area of lesion in the leaves is measured.

plant diseases = assay: Control of plant diseases (general statement); type: in vivo; conditions: for controlling effect against plant diseases, for example, the sheath blight of the rice plant: application in vivo; for effectiveness against sheath blight and stem rot of rice plant, damping off and sclerotial blight of vegetables, flowering plants and lumber seedlings: in vivo
[5] = tested on: men and beasts, as well as to fish; assay: Harmlessness to men, beasts and fish (general statement); conditions: in vivo
useful plants = assay: Effect on useful plants (general statement); type: in vivo; conditions: even when applied in a high concentration
[6] = Acute toxicity in mice, intravenous injection; type: in vivo; conditions: mouse, in vivo
Method: as §1

[7] = Acute toxicity for Oryzias latipes (median lethal dose, 48 hours); type: in vivo; conditions: medaka, leaving in water solution, read-out: TLm
Method: as §1

SMILES | highest dilution factor that causes an abnormal branching at the hyphal tips of Pellicularia sasakii (Pellicularia sasakii [1]) | dilution unit (maximum dilution which produces abnormal branching) (Pellicularia sasakii [1]) | antimicrobial potency / growth inhibition of bacteria and fungi in vitro (bacteria and fungi) | solubility in methanol (Solubilities) | Preventive effect (percent of the average length of lesion/stem per control untreated) (Pellicularia sasakii [3]; 3 ppm) | Preventive effect (percent of the average length of lesion/stem per control untreated) (Pellicularia sasakii [3]; 10 ppm) | Preventive effect (percent of the average length of lesion/stem per control untreated) (Pellicularia sasakii [3]; 30 ppm) | Preventive effect (percent of the average length of lesion/stem per control untreated) (Pellicularia sasakii [3]; 100 ppm) | Preventive effect (percent of the average length of lesion/stem per control untreated) (Pellicularia sasakii [3]; 300 ppm) | Remedial effect (percent of the average length of lesion/stem per control untreated) (Pellicularia sasakii [4]; 3 ppm) | Remedial effect (percent of the average length of lesion/stem per control untreated) (Pellicularia sasakii [4]; 10 ppm) | Remedial effect (percent of the average length of lesion/stem per control untreated) (Pellicularia sasakii [4]; 30 ppm) | Remedial effect (percent of the average length of lesion/stem per control untreated) (Pellicularia sasakii [4]; 100 ppm) | Remedial effect (percent of the average length of lesion/stem per control untreated) (Pellicularia sasakii [4]; 300 ppm) | Degree of damage (Rhyzoctonia solani; 5 ppm) | Degree of damage (Rhyzoctonia solani; 20 ppm) | Degree of damage (Rhyzoctonia solani; 80 ppm) | Specific area of lesion (Cladosporium fulvum) | controlling effect against plant diseases, for example, the sheath blight of the rice plant (plant diseases) | effectiveness against sheath blight and stem rot of rice plant, damping off and sclerotial blight of vegetables, flowering plants and lumber seedlings (plant diseases) | also measured
OCC1=C[C@H](N[C@H]2C[C@H](CO)[C@@H](O[C@@H]3O[C@@H](CO)[C@@H](O[C@H]4O[C@@H](CO)[C@@H](O)[C@H](O)[C@H]4O)[C@H](O)[C@H]3O)[C@@H](O)[C@H]2O)[C@@H](O)[C@H](O)[C@H]1O [Validamycin E] | 70,000 - 80,000 | 80000 dilution unit/ml. | no antimicrobial potency | more sparingly soluble | 3% | 2% | 0% | 0% | 0% | 14% | 12% | 11% | 5% | 3% | 10% | 0% | 0% | 2% | excellent controlling effect | very effective | pKa' [2]: 6.1 ± 0.2; LD50 (Mice): > 2000 mg/kg; TLm (Oryzias latipes): > 1000 ppm; Remedial effect (percent of the average length of lesion/stem per control untreated) (Pellicularia sasakii [4]; 1 ppm): 41%; harmfulness to men and beasts, as well as to fish [5]: substantially harmless; effect on germination, growth, yield and other features of useful plants (useful plants): do not substantially affect
OCC1=CC(NC2CC(CO)C(O)C(O)C2O)C(O)C(O)C1O (stereo not drawn) [Validoxylamine A] | 100 | 100 dilution unit/ml. | no antimicrobial potency | soluble | 28% | 4% | 1% | 0% | 0% | 83% | 28% | 14% | 10% | 7% | 84% | 6% | 0% | 6% | excellent controlling effect | very effective | pKa ([2]; water): 6.2 ± 0.2; LD50 [6]: > 2000 mg/kg; LC50 at 48 h [7]: > 1000 µg/mL; harmfulness to men and beasts, as well as to fish [5]: substantially harmless; effect on germination, growth, yield and other features of useful plants (useful plants): do not substantially affect
